Source: PubChem BioAssay AID1134 (Emory University Molecular Libraries Screening Center, 2008)

Key:
[1] = BAP1 versus UCH-L1 deubiquitinase inhibition – biochemical, ubiquitin-rhodamine110-glycine substrate, selectivity assay, dose response (AID 1134); conditions: recombinant BAP1, ubiquitin-rhodamine110 cleavage fluorescence kinetic; measured here: UCH-L1 counter-screen IC50
[2] = molecular target: Ubiquitin carboxyl-terminal hydrolase BAP1 (Homo sapiens) (UniProt Q92560); test: as above; conditions: recombinant BAP1, ubiquitin-rhodamine110 cleavage fluorescence kinetic
Sequence of Ubiquitin carboxyl-terminal hydrolase BAP1 (Homo sapiens) (Q92560 whole entry, looked up): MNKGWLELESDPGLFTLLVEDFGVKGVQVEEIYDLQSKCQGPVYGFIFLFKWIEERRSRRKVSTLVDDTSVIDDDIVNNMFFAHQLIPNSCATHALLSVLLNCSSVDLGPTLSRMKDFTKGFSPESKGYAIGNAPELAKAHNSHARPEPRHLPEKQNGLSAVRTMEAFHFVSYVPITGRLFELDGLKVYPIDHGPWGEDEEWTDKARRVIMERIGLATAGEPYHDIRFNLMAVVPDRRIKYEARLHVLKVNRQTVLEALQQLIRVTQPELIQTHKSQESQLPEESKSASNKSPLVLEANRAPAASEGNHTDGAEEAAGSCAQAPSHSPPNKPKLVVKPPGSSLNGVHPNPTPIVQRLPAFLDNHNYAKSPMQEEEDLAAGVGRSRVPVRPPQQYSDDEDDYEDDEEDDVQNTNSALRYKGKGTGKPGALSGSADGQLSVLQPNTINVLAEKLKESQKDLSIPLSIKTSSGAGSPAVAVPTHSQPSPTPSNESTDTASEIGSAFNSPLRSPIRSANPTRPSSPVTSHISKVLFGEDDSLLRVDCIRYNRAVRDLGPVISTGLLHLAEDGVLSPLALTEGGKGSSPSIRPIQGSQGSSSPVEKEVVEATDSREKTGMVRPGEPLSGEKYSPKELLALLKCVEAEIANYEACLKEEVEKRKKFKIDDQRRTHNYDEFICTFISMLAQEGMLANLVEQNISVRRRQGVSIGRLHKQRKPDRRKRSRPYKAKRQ

SMILES	IC50 [1]	IC50 [2]
O=C(CSc1nnc(-c2ccc(Cl)cc2)o1)Nc1cc(-c2ccc(F)cc2)[nH]n1	51.9 µM	0.86 µM
Cc1sc(NC(=O)CSc2nnc(Cc3ccc(Cl)cc3)o2)c(C#N)c1-c1ccc(F)cc1		6.22 µM
Cc1sc(NC(=O)CSc2nnc(-c3ccc(O)cc3)o2)c(C#N)c1-c1ccc(F)cc1		15.3 µM
Cc1sc(NC(=O)CSc2nccc(-c3ccc(Cl)cc3)n2)c(C#N)c1-c1ccc(F)cc1	47.6 µM	1.58 µM
Cc1ccccc1Nc1nnc(SCC(=O)NCc2ccco2)s1		17.4 µM
Cc1sc(NC(=O)CSc2nnc(-c3ccc(O)cc3)o2)c(C#N)c1-c1ccc(CC(C)C)cc1		4.77 µM
COC(=O)c1c(NC(=O)CSc2nnc(-c3ccc(O)cc3)o2)sc(C)c1-c1ccc(F)cc1		6.07 µM
Cc1sc(NC(=O)CSc2nnc(-c3ccc(O)cc3O)o2)c(C#N)c1-c1ccc(F)cc1		5.62 µM
Cc1sc(NC(=O)CSc2nccc(-c3ccc(Cl)cc3)n2)c(C#N)c1C		4.82 µM
Cc1sc(NC(=O)CSc2nnc(-c3ccc(I)cc3)o2)c(C#N)c1-c1ccc(F)cc1	> 100 µM	2.76 µM
Cc1sc(NC(=O)CSc2nnc(-c3ccc(Cl)nc3)o2)c(C#N)c1-c1ccc(F)cc1	13.6 µM	2.81 µM
Cc1sc(NC(=O)CSc2nnc(-c3cccnc3)o2)c(C#N)c1-c1ccc(F)cc1		35.4 µM
Cc1ccc(-c2c(C)sc(NC(=O)CSc3nnc(-c4ccc(Cl)cc4)o3)c2C#N)cc1C	7.55 µM	5.19 µM
Cc1sc(NC(=O)CSc2n[nH]c(-c3ccc(O)cc3)n2)c(C#N)c1-c1ccc(F)cc1	10.1 µM	2.19 µM
Cc1sc(NC(=O)CSc2nnc(N3CCOCC3)o2)c(C#N)c1-c1ccc(F)cc1		16.8 µM
Cc1sc(NC(=O)CSc2nnc(-c3ccncc3)o2)c(C#N)c1-c1ccc(F)cc1		8.8 µM
Cc1sc(NC(=O)CSc2nnc(-c3ccc(Cl)cc3)o2)c(C(N)=O)c1-c1ccc(F)cc1		3.88 µM
Cc1sc(NC(=O)CSc2nnc(-c3ccc(Cl)cc3)o2)c(C#N)c1-c1ccc(Cl)cc1Cl	13.8 µM	1.15 µM
COC(=O)c1c(NC(=O)CSc2nnc(-c3ccc(Cl)cc3)o2)sc(C)c1-c1ccc(F)cc1	23.6 µM	3.59 µM
Cc1sc(NC(=O)CSc2nnc(-c3ccc(Cl)cc3)o2)c(C#N)c1-c1ccccc1	13.7 µM	1.88 µM

Continued, values first:

IC50 [1]	IC50 [2]	SMILES
20.6 µM	3.73 µM	Cc1sc(NC(=O)CSc2nnc(-c3ccc(Cl)cc3)o2)c(C#N)c1-c1ccc(CC(C)C)cc1
16.9 µM	0.9 µM	Cc1sc(NC(=O)CSc2nnc(-c3ccc(Br)cc3)o2)c(C#N)c1-c1ccc(F)cc1
	14.4 µM	O=C(CSc1nnc(-c2ccc(O)cc2)o1)Nc1cc(-c2ccc(F)cc2)[nH]n1
44.3 µM	2.54 µM	CCOC(=O)c1cnc(SCC(=O)Nc2sc(C)c(C)c2C#N)nc1N
	31.1 µM	Cc1sc(NC(=O)CSc2n[nH]c(-c3ccc(O)cc3)n2)c(C#N)c1C
21.2 µM	0.81 µM	Cc1sc(NC(=O)CSc2nnc(-c3ccc(Cl)cc3)o2)c(C#N)c1-c1ccc(F)cc1
26 µM	3.95 µM	Cc1ccc(-c2c(C)sc(NC(=O)CSc3nnc(-c4ccc(F)cc4)o3)c2C#N)cc1C
	3.7 µM	Cc1sc(NC(=O)CSc2nnc(-c3ccc(O)cc3)o2)c(C#N)c1-c1ccc(Cl)cc1Cl
	8.8 µM	Cc1ccccc1Nc1nnc(SCC(=O)Nc2sc(C)c(-c3ccc(F)cc3)c2C#N)s1
	15.4 µM	O=C(NCc1ccco1)c1cc2nc(-c3ccc4c(c3)OCO4)cc(C(F)(F)F)n2n1
	40.1 µM	Cc1sc(NC(=O)CSc2nnc(-c3ccc(N)cc3)o2)c(C#N)c1-c1ccc(F)cc1
